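How tested: cells in 96-well plates exposed to compound for 48 hours at five concentrations. GI50: concentration for 50% inhibition of growth. TGI denotes the concentration required for complete inhibition of growth.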
Experiments:
Assay in all cases: NCI tumour cell line growth inhibition, 48 h
OVCAR-5 ovarian = test system: OVCAR-5 ovarian
NCI-H23 lung = test system: NCI-H23 lung
HL-60(TB) leukemia = test system: HL-60(TB) leukemia
OVCAR-3 ovarian = test system: OVCAR-3 ovarian
MDA-MB-468 breast = test system: MDA-MB-468 breast
HCT-15 colon = test system: HCT-15 colon
CCRF-CEM leukemia = test system: CCRF-CEM leukemia
MCF7 breast = test system: MCF7 breast
HCC-2998 colon = test system: HCC-2998 colon
PC-3 prostate = test system: PC-3 prostate
SR leukemia = test system: SR leukemia
IGROV1 ovarian = test system: IGROV1 ovarian
ACHN renal = test system: ACHN renal
EKVX NSCLC = test system: EKVX NSCLC
DU-145 prostate = test system: DU-145 prostate
MDA-MB-435 = test system: MDA-MB-435
NCI-H226 lung = test system: NCI-H226 lung
TK-10 renal = test system: TK-10 renal
T-47D breast = test system: T-47D breast
SNB-75 CNS = test system: SNB-75 CNS
MOLT-4 leukemia = test system: MOLT-4 leukemia
HOP-62 NSCLC = test system: HOP-62 NSCLC
RXF 393 renal = test system: RXF 393 renal
KM12 colon = test system: KM12 colon
SK-MEL-28 melanoma = test system: SK-MEL-28 melanoma
SK-MEL-2 melanoma = test system: SK-MEL-2 melanoma
OVCAR-8 ovarian = test system: OVCAR-8 ovarian
U251 CNS = test system: U251 CNS
NCI-H460 lung = test system: NCI-H460 lung
HS 578T breast = test system: HS 578T breast
UO-31 renal = test system: UO-31 renal
SF-295 CNS = test system: SF-295 CNS
SW-620 colon = test system: SW-620 colon
HCT-116 colon = test system: HCT-116 colon
NCI/ADR-RES ovarian = test system: NCI/ADR-RES ovarian
HOP-92 NSCLC = test system: HOP-92 NSCLC
M14 melanoma = test system: M14 melanoma
SN12C renal = test system: SN12C renal
CAKI-1 renal = test system: CAKI-1 renal
MALME-3M melanoma = test system: MALME-3M melanoma
COLO 205 colon = test system: COLO 205 colon
UACC-62 melanoma = test system: UACC-62 melanoma
RPMI-8226 leukemia = test system: RPMI-8226 leukemia
MDA-MB-231 breast = test system: MDA-MB-231 breast
LOX IMVI melanoma = test system: LOX IMVI melanoma
BT-549 breast = test system: BT-549 breast
SF-539 CNS = test system: SF-539 CNS
A549 NSCLC = test system: A549 NSCLC
NCI-H522 lung = test system: NCI-H522 lung
SNB-19 CNS = test system: SNB-19 CNS
HT29 colon = test system: HT29 colon
K-562 leukemia = test system: K-562 leukemia
SK-OV-3 ovarian = test system: SK-OV-3 ovarian
SK-MEL-5 melanoma = test system: SK-MEL-5 melanoma
SF-268 CNS = test system: SF-268 CNS
A498 renal = test system: A498 renal
UACC-257 melanoma = test system: UACC-257 melanoma
786-0 renal = test system: 786-0 renal
OVCAR-4 ovarian = test system: OVCAR-4 ovarian

Question: `CN1C(=O)N(C)C2SC(N/N=C/c3cccs3)=NC21` (stereo not drawn) was tested. Which GI50 (OVCAR-5 ovarian) did it give?
Answer: 6.45 µM

Question: And the TGI (OVCAR-5 ovarian)?
Answer: 86.2 µM

Question: What about the GI50 (NCI-H23 lung) of the same compound?
Answer: 17.7 µM

Question: What about the TGI (NCI-H23 lung) of the same compound?
Answer: > 100 µM

Question: What about the GI50 (HL-60(TB) leukemia) of the same compound?
Answer: 2.39 µM

Question: And the TGI (HL-60(TB) leukemia)?
Answer: 7.36 µM

Question: And the GI50 (OVCAR-3 ovarian)?
Answer: 3.43 µM

Question: What about the TGI (OVCAR-3 ovarian) of the same compound?
Answer: 30.8 µM

Question: And the GI50 (MDA-MB-468 breast)?
Answer: 1.89 µM

Question: And the TGI (MDA-MB-468 breast)?
Answer: 5.47 µM

Question: What about the GI50 (HCT-15 colon) of the same compound?
Answer: 3.92 µM

Question: And the TGI (HCT-15 colon)?
Answer: > 100 µM

Question: And the GI50 (CCRF-CEM leukemia)?
Answer: 3.96 µM

Question: And the TGI (CCRF-CEM leukemia)?
Answer: > 100 µM

Question: What about the GI50 (MCF7 breast) of the same compound?
Answer: 3.98 µM

Question: What about the TGI (MCF7 breast) of the same compound?
Answer: > 100 µM

Question: And the GI50 (HCC-2998 colon)?
Answer: 8.21 µM

Question: What about the TGI (HCC-2998 colon) of the same compound?
Answer: 71.9 µM

Question: What about the GI50 (PC-3 prostate) of the same compound?
Answer: 6.77 µM

Question: What about the TGI (PC-3 prostate) of the same compound?
Answer: > 100 µM

Question: And the GI50 (SR leukemia)?
Answer: 2.47 µM

Question: What about the TGI (SR leukemia) of the same compound?
Answer: > 100 µM

Question: And the GI50 (IGROV1 ovarian)?
Answer: 5.58 µM

Question: What about the TGI (IGROV1 ovarian) of the same compound?
Answer: > 100 µM

Question: And the GI50 (ACHN renal)?
Answer: 12 µM

Question: What about the TGI (ACHN renal) of the same compound?
Answer: > 100 µM

Question: What about the GI50 (EKVX NSCLC) of the same compound?
Answer: 7.93 µM

Question: And the TGI (EKVX NSCLC)?
Answer: > 100 µM

Question: And the GI50 (DU-145 prostate)?
Answer: 30 µM

Question: What about the TGI (DU-145 prostate) of the same compound?
Answer: > 100 µM

Question: What about the GI50 (MDA-MB-435) of the same compound?
Answer: 1.58 µM

Question: What about the TGI (MDA-MB-435) of the same compound?
Answer: 4.18 µM

Question: And the GI50 (NCI-H226 lung)?
Answer: 7.53 µM

Question: And the TGI (NCI-H226 lung)?
Answer: > 100 µM

Question: What about the GI50 (TK-10 renal) of the same compound?
Answer: > 100 µM

Question: What about the TGI (TK-10 renal) of the same compound?
Answer: > 100 µM

Question: What about the GI50 (T-47D breast) of the same compound?
Answer: 4.56 µM

Question: What about the TGI (T-47D breast) of the same compound?
Answer: > 100 µM

Question: What about the GI50 (SNB-75 CNS) of the same compound?
Answer: 1.66 µM

Question: And the TGI (SNB-75 CNS)?
Answer: 7.61 µM

Question: And the GI50 (MOLT-4 leukemia)?
Answer: 4.26 µM

Question: What about the TGI (MOLT-4 leukemia) of the same compound?
Answer: > 100 µM

Question: And the GI50 (HOP-62 NSCLC)?
Answer: 7.45 µM

Question: What about the TGI (HOP-62 NSCLC) of the same compound?
Answer: > 100 µM

Question: And the GI50 (RXF 393 renal)?
Answer: 2.09 µM

Question: What about the TGI (RXF 393 renal) of the same compound?
Answer: 17.6 µM

Question: And the GI50 (KM12 colon)?
Answer: 4.97 µM

Question: And the TGI (KM12 colon)?
Answer: > 100 µM

Question: What about the GI50 (SK-MEL-28 melanoma) of the same compound?
Answer: 6.38 µM

Question: And the TGI (SK-MEL-28 melanoma)?
Answer: > 100 µM

Question: And the GI50 (SK-MEL-2 melanoma)?
Answer: 2.5 µM

Question: And the TGI (SK-MEL-2 melanoma)?
Answer: 7.27 µM

Question: What about the GI50 (OVCAR-8 ovarian) of the same compound?
Answer: 14.5 µM

Question: What about the TGI (OVCAR-8 ovarian) of the same compound?
Answer: > 100 µM

Question: What about the GI50 (U251 CNS) of the same compound?
Answer: 4.46 µM

Question: What about the TGI (U251 CNS) of the same compound?
Answer: > 100 µM

Question: What about the GI50 (NCI-H460 lung) of the same compound?
Answer: 3.98 µM

Question: And the TGI (NCI-H460 lung)?
Answer: > 100 µM

Question: And the GI50 (HS 578T breast)?
Answer: 2.63 µM

Question: What about the TGI (HS 578T breast) of the same compound?
Answer: 9.74 µM

Question: And the GI50 (UO-31 renal)?
Answer: 9.9 µM

Question: What about the TGI (UO-31 renal) of the same compound?
Answer: > 100 µM

Question: What about the GI50 (SF-295 CNS) of the same compound?
Answer: 3.92 µM

Question: And the TGI (SF-295 CNS)?
Answer: > 100 µM

Question: And the GI50 (SW-620 colon)?
Answer: 3.68 µM

Question: What about the TGI (SW-620 colon) of the same compound?
Answer: > 100 µM

Question: And the GI50 (HCT-116 colon)?
Answer: 3.98 µM

Question: And the TGI (HCT-116 colon)?
Answer: > 100 µM

Question: What about the GI50 (NCI/ADR-RES ovarian) of the same compound?
Answer: 3.91 µM

Question: What about the TGI (NCI/ADR-RES ovarian) of the same compound?
Answer: 38.2 µM

Question: And the GI50 (HOP-92 NSCLC)?
Answer: > 100 µM

Question: And the TGI (HOP-92 NSCLC)?
Answer: > 100 µM

Question: What about the GI50 (M14 melanoma) of the same compound?
Answer: 3.32 µM

Question: What about the TGI (M14 melanoma) of the same compound?
Answer: > 100 µM

Question: What about the GI50 (SN12C renal) of the same compound?
Answer: > 100 µM

Question: And the TGI (SN12C renal)?
Answer: > 100 µM

Question: And the GI50 (CAKI-1 renal)?
Answer: 4.12 µM

Question: And the TGI (CAKI-1 renal)?
Answer: > 100 µM

Question: And the GI50 (MALME-3M melanoma)?
Answer: 3.83 µM

Question: What about the TGI (MALME-3M melanoma) of the same compound?
Answer: > 100 µM

Question: And the GI50 (COLO 205 colon)?
Answer: 4.47 µM

Question: What about the TGI (COLO 205 colon) of the same compound?
Answer: 24.1 µM

Question: And the GI50 (UACC-62 melanoma)?
Answer: 3.69 µM

Question: And the TGI (UACC-62 melanoma)?
Answer: > 100 µM

Question: And the GI50 (RPMI-8226 leukemia)?
Answer: 9.1 µM

Question: And the TGI (RPMI-8226 leukemia)?
Answer: > 100 µM

Question: What about the GI50 (MDA-MB-231 breast) of the same compound?
Answer: 4.89 µM

Question: And the TGI (MDA-MB-231 breast)?
Answer: 88.3 µM

Question: And the GI50 (LOX IMVI melanoma)?
Answer: 5.26 µM

Question: And the TGI (LOX IMVI melanoma)?
Answer: > 100 µM

Question: And the GI50 (BT-549 breast)?
Answer: 3.61 µM

Question: What about the TGI (BT-549 breast) of the same compound?
Answer: > 100 µM

Question: And the GI50 (SF-539 CNS)?
Answer: 3.42 µM

Question: What about the TGI (SF-539 CNS) of the same compound?
Answer: 16.9 µM

Question: And the GI50 (A549 NSCLC)?
Answer: 9.64 µM

Question: And the TGI (A549 NSCLC)?
Answer: > 100 µM

Question: What about the GI50 (NCI-H522 lung) of the same compound?
Answer: 2.74 µM

Question: And the TGI (NCI-H522 lung)?
Answer: 10.4 µM

Question: What about the GI50 (SNB-19 CNS) of the same compound?
Answer: 11.4 µM

Question: What about the TGI (SNB-19 CNS) of the same compound?
Answer: > 100 µM

Question: And the GI50 (HT29 colon)?
Answer: 3.03 µM

Question: And the TGI (HT29 colon)?
Answer: 11.5 µM

Question: And the GI50 (K-562 leukemia)?
Answer: 2.96 µM

Question: What about the TGI (K-562 leukemia) of the same compound?
Answer: > 100 µM

Question: And the GI50 (SK-OV-3 ovarian)?
Answer: 7.74 µM

Question: And the TGI (SK-OV-3 ovarian)?
Answer: 92 µM

Question: What about the GI50 (SK-MEL-5 melanoma) of the same compound?
Answer: 2.87 µM

Question: What about the TGI (SK-MEL-5 melanoma) of the same compound?
Answer: > 100 µM

Question: What about the GI50 (SF-268 CNS) of the same compound?
Answer: 14.3 µM

Question: And the TGI (SF-268 CNS)?
Answer: > 100 µM

Question: And the GI50 (A498 renal)?
Answer: 22.7 µM

Question: And the TGI (A498 renal)?
Answer: > 100 µM

Question: What about the GI50 (UACC-257 melanoma) of the same compound?
Answer: > 100 µM

Question: What about the TGI (UACC-257 melanoma) of the same compound?
Answer: > 100 µM

Question: And the GI50 (786-0 renal)?
Answer: 14.3 µM

Question: And the TGI (786-0 renal)?
Answer: > 100 µM

Question: What about the GI50 (OVCAR-4 ovarian) of the same compound?
Answer: > 100 µM

Question: What about the TGI (OVCAR-4 ovarian) of the same compound?
Answer: > 100 µM
